{"source": "patent US20240309014A1", "about": "“MACROCYCLIC COMPOUNDS AND USES THEREOF” (President and Fellows of Harvard College, priority 2017, published 2024)", "key": {"[1]": {"test_system": "FaDu subcutaneous xenograft", "assay": "FaDu subcutaneous xenograft in combination with cetuximab, single dose (FIG. 16)", "type": "in vivo, athymic mice", "conditions": "single dose Day 1", "method": "A human squamous cell carcinoma of the head and neck (SCCHN) cell line FaDu, which had been cultured in an RPMI-1640 medium containing 10% FBS, and penicillin-streptomycin, was adjusted to a concentration of 5×10^7 cells/mL with Hanks' Balanced Salt Solution to prepare a cell suspension. The cell suspension was inoculated in a volume of 100 μL into a subcutaneous part of a right flank of athymic mice (CAnN.Cg-Foxnlnu/CrlCrlj, female, 7 weeks old, Charles River Japan Inc.). Ten days after cell inoculation (Day 1), the length and the width of a tumor in each mouse were measured by using an electronic digital caliper (Mitutoyo Corporation), so as to calculate the volume of the tumor in accordance with the following calculation formula: […]\nOn the basis of TV, the mice were randomly grouped (Day 1). Each group was consisted in six mice. Compound (1) was dissolved in DMSO and a solution was stored in the freezer before use."}, "[2]": {"test_system": "OSC-19 subcutaneous xenograft", "assay": "Antitumor activity against OSC-19 subcutaneous xenograft as monotherapy", "type": "in vivo, nude mice", "conditions": "Q7Dx2", "method": "A human squamous cell carcinoma of the head and neck (SCCHN) cell line OSC-19, which had been cultured in an DMEM/Ham's F-12 (1:1) medium containing 10% FBS, and penicillin and streptomycin, was adjusted to a concentration of 1×10^8 cells/ml with PBS to prepare a cell suspension, and the suspension was mixed with Matrigel™ (BD Bioscience, #366237) in a ratio of 1:1 to prepare a cell suspension in a concentration of 5×10^7 cell/mL. The cell suspension was inoculated in a volume of 100 μL into a subcutaneous part of a right flank of nude mice, 5 weeks of ages (CAnN.Cg-Foxnlnu/CrlCrlj, female, Charles River Laboratories Japan, Inc.). Six days after cell inoculation, the shortest diameter and the longest diameter of a tumor in each mouse were measured by using an electronic digital caliper (Digimatic™ caliper, Mitutoyo Corporation), so as to calculate the volume of the tumor in accordance with the following calculation formulae: […]\nOn the basis of the volumes of tumors obtained on the first day of administration, the mice were grouped such that averages of the tumor volumes were substantially equal among the groups. The experiment was conducted on groups each consisting of 6 mice. Test compound was dissolved in saline and intravenously administered at doses from 0.06 mg/kg to 0.18 mg/kg once a week for 2 weeks (Q7Dx2 schedule)."}}}
{"smiles": "C=C1C[C@@H]2CC[C@@]34C[C@H]5O[C@H]6[C@@H](O3)[C@H]3O[C@H](CC[C@@H]3O[C@H]6C5O4)CC(=O)O[C@@H]3[C@@H](C)[C@@H]4O[C@@H]5C[C@]6(C[C@@H]7O[C@]8(C[C@H](C)[C@@H]9O[C@H](CN)[C@H](O)C[C@@H]9O8)C[C@H](C)[C@@H]7O6)O[C@@H]5C[C@@H]4O[C@H]3C[C@H]3O[C@@H](CC[C@@H]1O2)C[C@@H](C)C3=C", "note": "(stereo in doubt) [Compound (1)]", "values": [{"measurement": "antitumor efficacy with CTX", "setting": "[1]; 20 μg/kg + cetuximab 10 mg/kg", "result": "tended to be stronger than that of CTX monotherapy"}, {"measurement": "antitumor efficacy with CTX", "setting": "[1]; 180 μg/kg and 60 μg/kg + cetuximab 10 mg/kg", "result": "stronger than that of CTX monotherapy with tumor regression"}, {"measurement": "Tumor Regression (%)", "setting": "[2]; 0.06 mg/kg i.v.", "result": 59, "unit": "%"}, {"measurement": "Tumor Regression (%)", "setting": "[2]; 0.18 mg/kg i.v.", "result": 90, "unit": "%"}]}
